Data: patent US20080051445A1, “2-Thioxothiazolidin-4-one compounds and compositions as antimicrobial and antimalarial agents targeting enoyl-ACP reductase of type II fatty acid synthesis pathway and other cell growth pathways” (NATIONAL INSTITUTE OF IMMUNOLOGY., priority 2006, published 2008)
Values after ≈ are worked out from the molar mass of the structure shown.

Legend:
[1] = system: Chloroquine-sensitive Plasmodium falciparum FCK2 strain; assay: In vitro whole-cell assay against Plasmodium falciparum in red blood cell cultures; assay type: cell-based
Procedure: Compound NAV 117 was assayed for in vitro growth inhibition of Plasmodium falciparum by incubating the cultures with different concentrations of the inhibitors in Me2SO (final concentration, 0.05%). The cultures were checked for growth inhibition by microscopic examination by assessing the parasitemia at every 48 h (●) and 96 h (∘). The average of three data sets has been plotted, and the error bars are shown.
In vitro whole-cell assay against Plasmodium falciparum. Antimalarial activity of NAV-117 was checked towards the Chloroquine-sensitive Plasmodium falciparum FCK2 strain in red blood cell cultures.

[2] = target: PfENR (Plasmodium falciparum, UniProt Q9BH77); assay: Inhibition of PfENR (P. falciparum enoyl-ACP reductase, PfFabI), spectrophotometric NADH/crotonoyl-CoA assay; assay type: biochemical
Procedure: PfENR activity was determined in the presence of various concentrations of the inhibitor (25 nM to 750 nM). The percent inhibition was calculated from the residual PfENR activity and was plotted against log compound NAV-117 used. The sigmoidal curve indicates the best fit for the data and IC50 value was calculated from the graph.
PfENR was assayed at two fixed concentrations -100 μM [·] and 200 μM [<] of crotonoyl CoA in presence of 250 nM of compound NAV-117 and 100 μM of NADH. Ki was calculated from the X-intercept. Plot indicates competitive kinetics with respect to crotonoyl CoA.
200 nM PfENR was assayed in presence of 200 μM crotnoyl CoA, 250 nM compound NAV-117 and 50 μM [·] and 100 μM [<] of NADH. Ki of inhibitor was calculated from the. X-intercept. Plot indicates noncompetitive kinetics with respect to NADH.
Spectrophotometric assay of enzyme activity The activity of the Enoyl-ACP reductase was assayed by following rate of the disappearance of NADH using crotonyl-CoA as a substrate. The assay mixture (100 μl) comprised of 100 μM crotonyl-CoA 100 μM NADH and 1% ethanol in […] buffer, pH 7.5. The kinetic parameters were obtained form the double reciprocal plots.
Enzyme inhibition studies The inhibition studies were carried out by preincubating enoyl ACP reductase with the respective compound and various concentrations of the coenzymes at 4° C. for 5 hours. This was warmed to 25° C. and assay was started by the addition of the crotonyl-CoA. The inhibition constant Ki was determined by using the following equation: v=v0/(1+[I]/Ki)
Kinetics of inhibition of PfENR. We deduced the kinetics of inhibition for NAV-117 with respect to crotonoyl CoA as well as NADH. The reaction velocity was measured at a fixed concentration of substrate varying the inhibitor concentration. A graph of the reciprocal of velocity against inhibitor concentration was plotted. […] The IC50 value was calculated by ploting the residual PfENR activity against log of inhibitor concentration and fitting the data points into a sigmoidal curve (FIG. 3). […]

Chain of PfENR (Q9BH77 entry or part of it): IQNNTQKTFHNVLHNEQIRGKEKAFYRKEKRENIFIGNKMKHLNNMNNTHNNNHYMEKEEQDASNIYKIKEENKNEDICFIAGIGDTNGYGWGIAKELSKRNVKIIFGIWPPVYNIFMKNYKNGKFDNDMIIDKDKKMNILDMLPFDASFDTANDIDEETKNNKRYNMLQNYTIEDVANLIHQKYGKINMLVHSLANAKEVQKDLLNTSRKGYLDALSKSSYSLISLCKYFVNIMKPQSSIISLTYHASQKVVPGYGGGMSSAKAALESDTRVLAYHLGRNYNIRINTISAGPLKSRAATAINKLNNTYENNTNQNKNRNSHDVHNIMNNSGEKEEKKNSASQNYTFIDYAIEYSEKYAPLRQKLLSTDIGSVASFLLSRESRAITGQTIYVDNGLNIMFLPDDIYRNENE

In the case of `O=C1/C(=C/c2ccc(O)c(O)c2)SC(=S)N1c1ccccc1` [NAV-117, 5-(3,4-Dihydroxy-benzylidene)-3-phenyl-2-thioxo-thiazolidin-4-one], the IC50 ([1]; Erythrocyte, after 96 h, non-linear regression (FIG. 6), read-out: IC50 value for growth inhibition of the parasite) is reported as roughly 750 nM, the MIC ([1]; read-out: MIC (minimum inhibitory concentration)) is reported as 2.5 µM (≈ 0.824 µg/mL) and the “inhibition kinetics with respect to crotonoyl CoA (Dixon plot)” value ([2]; 100 μM and 200 μM crotonoyl CoA, 100 μM NADH (FIG. 4)) is reported as “competitive”. For the same compound, the “inhibition kinetics with respect to NADH (Dixon plot)” value ([2]; 200 μM crotonoyl CoA, 50 μM and 100 μM NADH (FIG. 5)) was “noncompetitive” and the IC50 ([2]; inhibitor 25 nM to 750 nM, sigmoidal fit (FIG. 3), read-out: IC50 value (residual PfENR activity against log of inhibitor concentration) (converted)) was 242 nM.
